Experimental data: US10512632B2, “1 H-pyrazolo[4,3-B]pyridines as PDE1 inhibitors” (priority 2016, dated 2019)

Tests used:
[1] = molecular target: PDE1A (Homo sapiens (Human), UniProt P54750); test: PDE1 inhibition assay (PDE1A), SPA with tritium labelled cAMP; format: biochemical; conditions: 15 nM tritium labelled cAMP, 1 hr at room temperature
Source text: (§1) Table 1 lists the IC50 value for inhibition of PDE1 by the compounds of the invention. […] PDE1 assays are described in the Experimental Section.

[2] = molecular target: PDE1B (Homo sapiens (Human), UniProt Q01064); test: PDE1 inhibition assay (PDE1B), SPA with tritium labelled cAMP; format: biochemical; conditions: 15 nM tritium labelled cAMP, 1 hr at room temperature
Source text: as §1

Chain of PDE1B (Q01064 whole entry): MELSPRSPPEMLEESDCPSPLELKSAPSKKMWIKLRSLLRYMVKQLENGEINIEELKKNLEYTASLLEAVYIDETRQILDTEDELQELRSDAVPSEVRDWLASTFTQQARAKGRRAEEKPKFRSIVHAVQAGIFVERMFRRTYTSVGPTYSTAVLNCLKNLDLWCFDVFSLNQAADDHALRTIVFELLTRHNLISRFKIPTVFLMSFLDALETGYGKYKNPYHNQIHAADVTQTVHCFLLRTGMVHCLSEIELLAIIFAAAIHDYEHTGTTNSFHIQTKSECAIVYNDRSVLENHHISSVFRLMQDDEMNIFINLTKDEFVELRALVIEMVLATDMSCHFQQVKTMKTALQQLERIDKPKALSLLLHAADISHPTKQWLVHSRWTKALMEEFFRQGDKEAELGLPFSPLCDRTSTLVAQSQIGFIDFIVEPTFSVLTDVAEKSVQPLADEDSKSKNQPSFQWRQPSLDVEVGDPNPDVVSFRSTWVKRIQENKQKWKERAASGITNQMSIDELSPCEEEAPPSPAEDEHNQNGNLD
Chain of PDE1A (P54750 whole entry): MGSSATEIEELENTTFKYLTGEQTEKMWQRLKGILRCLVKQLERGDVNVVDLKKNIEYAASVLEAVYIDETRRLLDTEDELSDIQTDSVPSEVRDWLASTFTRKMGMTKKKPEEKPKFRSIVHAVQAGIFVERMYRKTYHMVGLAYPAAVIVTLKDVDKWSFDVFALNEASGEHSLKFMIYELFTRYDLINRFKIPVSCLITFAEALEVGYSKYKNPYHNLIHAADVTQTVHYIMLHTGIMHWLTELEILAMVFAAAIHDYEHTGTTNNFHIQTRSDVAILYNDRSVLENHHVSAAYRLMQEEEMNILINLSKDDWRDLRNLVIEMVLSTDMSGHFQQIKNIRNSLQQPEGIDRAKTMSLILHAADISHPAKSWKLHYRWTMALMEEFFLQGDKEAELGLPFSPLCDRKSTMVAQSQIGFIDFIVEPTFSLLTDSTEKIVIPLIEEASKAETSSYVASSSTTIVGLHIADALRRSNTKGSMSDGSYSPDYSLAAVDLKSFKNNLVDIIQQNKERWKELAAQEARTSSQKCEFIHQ

CCOc1ncccc1-c1cc(NCc2ccncc2OC)c2c(n1)c(C)nn2C(C)C [Example 172, 5-(2-ethoxy-3-pyridyl)-1-isopropyl-N-[(3-methoxy-4-pyridyl)methyl]-3-methyl-pyrazolo[4,3-b]pyridin-7-amine]
IC50 [1]: 40 nM | IC50 [2]: 5.5 nM
